In patent US4343949A, “Novel 2-substituted-3,4-epoxycyclopentan-1-ones, 2-substituted-3,4-epoxycyclopentan-1-ols, and various 2-substituted-cyclopentenones” (American Cyanamid Company, priority 1979, dated 1982):

Tests used:
[1] = test system: ulcerogenic properties of indomethacin; test: protection against the ulcerogenic properties of indomethacin (stomach ulcer score); type: in vivo, Rats; details: indomethacin 20 mg./kg. s.c., 2.5 or lower = active
Procedure: The compounds of this invention provide protection against the ulcerogenic properties of indomethacin. This assay was carried out in the following manner.
Rats were starved for 48 hours (water was given ad libitum). Indomethacin (20 mg./kg. of body weight) was administered by the subutaneous route and one-half the dose of the test compound was administered by gavage at the same time. After three hours, the second half of the test compound was administered also by Gavage. Five hours after the administration of indomethacin the animals were decapitated and the stomachs removed. The stomachs were washed with distilled water, blotted on gauze, cut along the larger curvature, and the contents rinsed with distilled water. The stomachs were spread out, pinned on a cork and visualized under magnifying glass for ulcers. The criteria for scoring of ulcers was as previously reported. [Abdel-Galil et al. Brit. J. Pharmac. Chemotherapy 33:1-14 (1968)]. […]
______________________________________
Petechial hemorrhage or pin point ulcer
Many ulcers, a few large
Many ulcers, mainly large
Control animals treated with indomethacin but not test compound consistently give scores of about 3.0-3.5. Control animals treated with neither indomethacin nor test compound give scores of about 0.5-0.8. Compounds producing a score of 2.5 or lower are considered to be active.

[2] = test system: bronchospasms elicited by histamine; test: bronchodilator activity (Konzett assay) against histamine bronchospasm; type: in vivo, guinea pigs; details: Cavia porcellus; spasmogenic agent histamine; three logarithmic cumulative intravenous doses
Procedure: (§1) Bronchodilator activity was determined in guinea pigs against bronchospasms elicited by intravenous injections of 5-hydroxytryptamine, histamine or acetylcholine by the Konzett procedure. (See J. Lulling, P. Lievens, F. El Sayed and J. Prignot, Arzeimittel-Porschung, 18 995 (1968).]
(§2) In the Table which follows bronchodilator activity for representative compounds of this invention against one or more of the three spasmogenic agents is expressed as an ED50 determined from the results obtained with three logarithemic cumulative intravenous doses.

[3] = test system: bronchospasms elicited by acetylcholine; test: bronchodilator activity (Konzett assay) against acetylcholine bronchospasm; type: in vivo, guinea pigs; details: Cavia porcellus; spasmogenic agent acetylcholine (head prints choline); three logarithmic cumulative intravenous doses
Procedure: as §1, §2

[4] = test system: bronchospasms elicited by 5-hydroxytryptamine; test: bronchodilator activity (Konzett assay) against 5-hydroxytryptamine bronchospasm; type: in vivo, guinea pigs; details: Cavia porcellus; spasmogenic agent 5-hydroxytryptamine; three logarithmic cumulative intravenous doses
Procedure: as §1, §2

[5] = total oral dose 25 mg./kg. of body weight, control score 3.2

Row | SMILES | Score, Treated (stomach ulcer score) [1, 5] | ED50 [3] | ED50 [4] | other results
1 | CCCCCC(O)/C=C/C1CCC(=O)C1CCCCSCC(=O)O (stereo not drawn) [9-oxo-3-thia-15-epi-hydroxy-13-trans-prostenoic acid] | 2.3 | – | – | –
2 | CCCCCC(O)/C=C/C1CCC(=O)C1CCCCSCC(=O)O (stereo not drawn) [9-oxo-3-thia-15-hydroxy-13-trans-prostenoic acid] | 1.8 | – | – | –
3 | CCCCCC(O)/C=C/C1CCC(=O)C1(C)CCCCCCC(=O)O (stereo not drawn) [9-oxo-8β-methyl-15-hydroxy-13-trans-prostenoic acid] | – | – | – | Score, Treated (stomach ulcer score) ([1]; total oral dose 12.5 mg./kg. of body weight, control score 3.0): 2.0
4 | CCCCCC(O)/C=C/C1CCC(=O)C1CCCCCC(CC)C(=O)O (stereo not drawn) [9-oxo-15-hydroxy-2-ethyl-13-trans-prostenoic acid] | – | 0.533 µg/kg | 0.329 µg/kg | ED50 [2]: 0.145 µg/kg
5 | CCCCCC(O)/C=C\C1CCC(=O)C1CCCCCCC(=O)O (stereo not drawn) [9-oxo-15-hydroxy-13-cis-prostenoic acid] | – | 0.32 µg/kg | 0.106 µg/kg | –
